Measured values reported in patent US7919495B2, “Pyridyl non-aromatic nitrogen-containing heterocyclic-1-carboxylate compound” (Astellas Pharma, Inc., priority 2005, dated 2011).
pIC50: −log10 of the molar value.

Tests used:
[1] = target: T1, FAAH in human bladder epithelial cancer-derived cell line 5678 cells (Homo sapiens, UniProt O00519); experiment: Screening for FAAH activity-inhibiting substance with human bladder epithelial cancer-derived cell (IC50, Table 64); assay type: cell-based
T1 construct: host or cells: human bladder epithelial cancer-derived cell line ('5678' [sic], HTB-9)
T1 sequence (O00519 1-579): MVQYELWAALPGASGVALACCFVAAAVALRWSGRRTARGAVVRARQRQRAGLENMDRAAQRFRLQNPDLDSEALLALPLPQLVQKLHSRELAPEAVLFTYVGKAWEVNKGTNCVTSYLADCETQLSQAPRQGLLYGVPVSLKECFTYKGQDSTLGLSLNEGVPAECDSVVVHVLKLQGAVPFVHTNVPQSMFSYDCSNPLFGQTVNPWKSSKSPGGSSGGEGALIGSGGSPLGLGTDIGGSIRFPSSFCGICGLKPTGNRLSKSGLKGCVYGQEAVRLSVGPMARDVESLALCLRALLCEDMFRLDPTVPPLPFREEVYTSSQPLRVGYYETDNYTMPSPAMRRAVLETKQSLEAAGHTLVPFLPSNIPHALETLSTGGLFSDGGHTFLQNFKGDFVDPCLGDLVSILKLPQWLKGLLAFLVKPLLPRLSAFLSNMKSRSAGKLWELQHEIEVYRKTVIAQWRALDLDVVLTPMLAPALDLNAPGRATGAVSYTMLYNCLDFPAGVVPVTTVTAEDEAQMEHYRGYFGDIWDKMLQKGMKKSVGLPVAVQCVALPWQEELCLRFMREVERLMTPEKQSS
Method: Screening for FAAH Activity-Inhibiting Substance with Human Bladder Epithelial Cancer-Derived Cell
(1) Screening for FAAH Activity-Inhibiting Substance:
Human bladder epithelial cancer-derived cell line […] cells (HTB-9; ATCC) were seeded on a 48-well cell culture plate in an amount of 1×10^5 cell/well, using 10% fetal bovine serum (HyClone)-containing RPMI1640 medium (Invitrogen). After incubated at 37° C. for at least 12 hours, the cells were washed with 400 μl/well of a buffer (Hank's Balanced Salt Solution, 20 mM Hepes-NaOH (pH 7.4)). A test substance dissolved in DMSO was added to a substrate solution (the above buffer containing 3 μCi/ml radiolabeled anandamide (Anandamide [ethanolamine 1-3H]) and 10 μM anandamide) so as to have a concentration of from 0.003 nM to 30 nM. As a control, DMSO alone was added. 100 μl/well of the substrate solution was added to the above cells, and incubated in a CO2 incubator at 37° C. for 30 minutes. Next, the cell culture plate was transferred onto ice, and the substrate solution was removed by suction; and 75 μl/well of a cytolytic solution (the above buffer containing 0.5% Triton X-100, and 10 μM of FAAH-inhibitory activity-having compound, 3′-carbamoylbiphenyl-3-yl cyclohexylcarbamate (URB597; Cayman chemical; Kathuria et al., Nature Med., Vol. 9, pp. 76-81, 2003)) was added thereto, followed by stirring. The resulting cell lysate in every well was individually transferred into a 1.5 ml sample tube, to which was added 150 μl of 1:1 (by volume) chloroform/methanol solution, followed by vortexing. This was centrifuged (15000 rpm, 2 minutes), whereby the decomposed product, ethanolamine (ethanolamine 1-^3H) was separated in the upper layer (water/methanol layer) and the unreacted radiolabeled anandamide was in the lower layer (chloroform layer). 25 μl of the upper layer was transferred into a 96-well organic solvent-resistant white microplate (PicoPlate-96; Perkin Elmer), 150 μl of Microscint-20 (Perkin Elmer) was added thereto, and this was measured with a microplate scintillation counter (TopCount™; Beckman). As compared with the control, the substance that gave a decreased value was selected as an FAAH activity-inhibiting substance.
(2) Measurement of IC50 Value of FAAH Activity-Inhibiting Substance:
A test compound dissolved in DMSO to have a concentration of 10 mM was dissolved in the substrate solution so as to have a varying concentration of from 0.003 nM to 30 μM. According to the method mentioned above, the compound was analyzed for its influence on FAAH activity. As a negative control, DMSO was used. As a positive control, URB597 was added to the substrate solution to have a concentration of 10 μM. Based on the measured value of the positive control, 0%, and on the measured value of the negative control, 100%, IC50 value of the test substance was obtained.

[2] = test system: CPA-induced urinary frequency in rat; experiment: animal or person; assay type: in vivo; settings: po, 48 h, read-out: effective dose (increase of reduced effective bladder capacity)
[3] = target: FAAH (rat brain homogenate) (Rattus norvegicus, UniProt P97612); experiment: biochemical
FAAH (rat brain homogenate), sequence (P97612 whole entry): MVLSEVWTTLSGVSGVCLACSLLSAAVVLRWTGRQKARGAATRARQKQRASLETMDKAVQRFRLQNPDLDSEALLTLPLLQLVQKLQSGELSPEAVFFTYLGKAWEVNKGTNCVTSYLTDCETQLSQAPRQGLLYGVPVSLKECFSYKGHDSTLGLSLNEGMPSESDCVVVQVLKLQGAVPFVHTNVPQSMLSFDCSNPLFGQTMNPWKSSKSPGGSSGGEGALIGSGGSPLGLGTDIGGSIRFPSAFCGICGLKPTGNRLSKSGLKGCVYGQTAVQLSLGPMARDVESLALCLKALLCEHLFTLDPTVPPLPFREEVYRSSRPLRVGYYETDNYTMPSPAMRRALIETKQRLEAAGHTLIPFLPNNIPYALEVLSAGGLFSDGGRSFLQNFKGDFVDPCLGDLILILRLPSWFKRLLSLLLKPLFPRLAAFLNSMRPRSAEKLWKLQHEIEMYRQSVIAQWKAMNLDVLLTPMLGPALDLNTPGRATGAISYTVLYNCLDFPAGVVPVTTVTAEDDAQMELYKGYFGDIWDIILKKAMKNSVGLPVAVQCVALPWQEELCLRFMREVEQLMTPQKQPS

Row | Structure (SMILES) | pIC50 [1] | minimal effective dose [2] | pIC50 [3]
1 | O=C(O)c1cncc(OC(=O)N2CCC(Oc3ccc(OCc4cccc(F)c4)cc3)CC2)c1 [Example 218, 5-{[(4-{4-[(3-fluorobenzyl)oxy]phenoxy}piperidin-1-yl)carbonyl]oxy}nicotinic acid] | 9.36 | 3 mg/kg | 
2 | O=C(O)c1cncc(OC(=O)N2CCC(Oc3ccc(OCCC4CCCCC4)cc3)CC2)c1 [Example 228] | 9.66 | 1 mg/kg | 9.72
3 | CN(C)C(=O)c1cccc(CCC2CCN(C(=O)Oc3cncc(C(N)=O)c3)CC2)c1 [Example 325] | 9.27 | 1 mg/kg | 
4 | N#Cc1cccc(COc2ccc(C(=O)N3CCN(C(=O)Oc4cccnc4)CC3)cc2)c1 [Example 151] | 9.77 |  | 7.57
5 | NC(=O)c1cncc(OC(=O)N2CCC(CCc3cccc(C(=O)N4CCCC4)c3)CC2)c1 [Example 359] | 9.28 | 1 mg/kg | 8.89
6 | O=C(Oc1cccnc1)N1CCC(Oc2ccc(OCc3cccc(F)c3)cc2)CC1 [Example 2, (pyridin-3-yl) 4-{4-[(3-fluorobenzyl)oxy]phenoxy}piperidine-1-carboxylate] | 9.96 | 3 mg/kg | 9.85
